# Where “and” joins values, the source holds several entries; their conditions need not be identical. Equal values may be shown once.
# What was measured:
# [1] = system: insulin growth factor 1 (IGF-1); assay: IGF-1 levels in secretomas of treated HFDPC; assay type: cell-based, human; conditions: 24 h and 48 h after treatment, data not shown
# Protocol: Secretomas (supernatants that could be recovered from the HFDPC cultures challenged with the tested materials of Table 1) were analysed for detecting the presence and levels of animal cell growth factors and of microRNAs associated with hair growth in dermal papilla. […] Similar results (at 24 and 48 h) were observed when analysing the levels of fibroblast growth factor 7 (FGF-7). Both growth factors are associated with the promotion of hair growth.
# [2] = system: human dermal fibroblasts (HDF); assay: In vitro proliferation of human dermal fibroblasts (BrdU incorporation); assay type: cell-based; conditions: basal control = 100%
# Protocol: In order to further test the effects of the peptides of the invention in an additional setting, a proliferation assay was conducted onto human dermal fibroblasts (HDF).
# Normal Human Dermal Fibroblasts (HDF) were obtained from foreskin samples, surpluses from surgery of young donors (0-3 years old) and stablished by using the standard method of explants growth and enzymic dissociation of proliferating cells. Cells were propagated and grown in Growth Medium (GM): Dulbecco's 1 g/L glucose medium, supplemented with 10% foetal bovine serum (FBS, PAA); 2 mM L-glutamine (Lonza); and antibiotics (100 μg/ml Penicillin and 100 U/ml of Streptomycin, Lonza). For routine subcultivation and propagation of the primary culture, cells were washed twice with PBS ([…] buffered saline, pH 7.4), harvested with trypsin—EDTA (Gibco) and counted in Neubauer chamber before its seeding in a new cell culture flask (Falcon, 75 cm2).
# Test products were prepared at the defined final concentrations by its dilution in Maintenance Medium (Dulbecco's 1 g/L glucose medium, supplemented with 1% foetal bovine serum (FBS, PAA); 2 mM L-glutamine (Lonza); and antibiotics (100 μg/ml Penicillin and 100 U/ml of Streptomycin, Lonza), just before each application.
# HFD proliferation was assessed determining the proliferation index (%). Cell DNA replication was quantified by means of incorporated bromodeoxiuridine (BrdU) into DNA of treated cells. […] Cells being divided incorporated BrdU that is further detected by means of antibodies and immunocytochemistry detection. […]
# Data are depicted in FIG. 6 and FIG. 7, wherein it is shown the proliferation index (%) of HDF, calculated as the percentage of growing in relation to the basal control (non-treated HDF) which is accorded a 100% value of proliferation index. […]
# Data are depicted in FIG. 16, wherein it is shown the proliferation index (%) of HDF, calculated as the percentage of growing in relation to the basal control (non-treated HDF) which is accorded a 100% value of proliferation index.
# [3] = system: human hair follicle papilla cells (HFDPC); assay: In vitro proliferation of hair follicle dermal papilla cells (BrdU incorporation); assay type: cell-based
# Protocol: In order to test the effects of the cell-free supernatants, as well as of the peptides of the invention, a proliferation assay was conducted onto human hair follicle papilla cells (CELL APPLICATIONS, INC; Normal human hair follicles from temporal scalp. Single donor: Ref. 602-05a. Lot. 2092.).
# The culture media was a Papilla Cell Basal Medium supplemented with the Growth Supplements kit (Relative composition: Fetal bovine serum, growth factors and antibiotics. Application: 6% v/v).
# HFDPC proliferation was assessed determining the proliferation index (%). Cell DNA replication was quantified by means of incorporated bromodeoxiuridine (BrdU) into DNA of treated cells. BrdU assay allows measuring cell proliferation based on cell capability of incorporating BrdU during S-phase of the cell cycle. Cells being divided incorporated BrdU that is further detected by means of antibodies and immunocytochemistry detection.
# Cells were seeded at confluence in a 96-well plate. After stabilization and synchronization of cell cultures the tested products were added (at the final concentration indicated in Table 1 of Examples. After that, BrdU was added to cultures and HFDPC were incubated at 37° C. until complete BrdU incorporation. BrdU amounts were proportional to the number of cell divisions and thus to the growth of the treated culture.
# Data are depicted in FIG. 1, FIG. 2 and FIG. 3, wherein it is shown the proliferation index (%) of HFDPC, calculated as the percentage of growing in relation to the basal control (non-treated HFDPC) which is accorded a 100% value of proliferation index.
# [4] = system: males and females with hair-loss problems; assay: In vivo test: capillary (hair) density by Trichoscan microphotography in volunteers; design: species or system human
# Protocol: Curcuma longa cell-free supernatant prepared as indicated in Example 2, as well as the peptide of SEQ ID NO: 6 in the PBS buffered fortifying solution 2× disclosed in Example 1 were tested in males and females (n=60, from 18 to 60 years old) with hair-loss problems. There were excluded those volunteers that received a capillary treatment three months before the assay, volunteers with cutanic pathologies at scalp (psoriasis, dermatitis, etc.) and allergy to compounds in the formulations.
# Tested compounds were daily applied.
# At time 0 (T0) there were taken scalp pictures (frontal and occipital parts), trichograms for determining the hair phase cycle (telogen or anagen phase), the combing test (number of hair lost during combing), and capillary density by microphotography with Trichoscan®.
# At t=45 days and t=90 days, there were performed the combing test and the density tests (Trichoscan®)
# At t=150 days again as in t=0.
# Volunteers were separated in three groups. Group 1 receiving SEQ ID NO: 6 in the PBS buffered fortifying solution 2× disclosed in Example 1; Group 2 receiving Curcuma longa cell-free supernatant prepared as indicated in Example 2, and Group 3 the placebo.
# Data are depicted in next Table 2 for capillary density. This table includes the average values determined of capillary density increase after evaluating in each volunteer the number of hairs in a 0.25 cm^2 are, capillary density at t=0 and t=90, and said increase in relation to t=0 value
# [5] = group mean, minimal and maximal values not considered
substance,measurement,setting,value
"CH3—C(O)—YIYT-NH2 (Ac-YIYT-NH2) [SEQ ID NO: 6, in vivo: dissolved 0.025% w/w in PBS buffered fortifying solution 2×]",levels of insulin growth factor 1 (IGF-1),[1],higher levels were meaningful
same,proliferation index of HDF,"[2]; Assay 5, FIG. 16, peptide, nutritive solution, or both in combination",can promote cell proliferation
same,proliferation index of HDF,"[2]; FIGS. 6 and 7, 4Aa at 25, 12.5, 1.25 μg/ml, 5Aa at 1.25, 0.63, 0.25 μg/ml",can promote cell proliferation of HDF
same,proliferation index of HFDPC,"[3]; FIG. 1, relative to basal control (non-treated HFDPC) = 100%, concentrations C1/C2 of Table 1",showed the best results
same,proliferation index of HFDPC,"[3]; FIGS. 2 and 3, peptides with or without end-terminal modifications at 5.86, 2.93, 1.46 μg/ml, basal control = 100%",can promote cell proliferation
same,new hairs appeared in the whole hair,[4]; concluded from the mean hair density increase at T150,≤ 14000 hairs
same,Capillary density increase,"[4]; group average, t=90 in relation to t=0, daily application (Table 4)",14.66%
same,"HAIR DENSITY INCREASE T90, Mean",[4]; [5],14.03%
same,"HAIR DENSITY INCREASE T150, Mean",[4]; [5],19.27%
same,HAIR DENSITY INCREASE T90,"[4]; individual volunteers, T90 vs T0",16.66% and 6.06% and 40.91% and 11.11% (2×) and 22.73% and 34.37% and 5.40% and 17.15% and 7.14% and 0.00% (3×) and −9.62%(*) and 70.01%(*) and 4.76% and 39.99% and 9.67% and 11.54%
same,HAIR DENSITY INCREASE T150,"[4]; individual volunteers, T150 vs T0",24.99% and 6.06% and 36.36% and 14.63% and 18.18% and 21.87% and −5.41% and 2.86% and 35.71% and 0.00% (2×) and 14.81% and −7.69%(*) and 60.01% and 38.09% and 7.40% and 73.32%(*) and 9.67% and 42.31%
same,HAIR DENSITY 1/cm2 T90,"[4]; individual volunteers, T90 days",111.38 1/cm2 and 139.22 1/cm2 and 123.31 1/cm2 (2×) and 119.33 1/cm2 (3×) and 107.4 1/cm2 (2×) and 171.04 1/cm2 and 155.13 1/cm2 and 163.09 1/cm2 and 115.35 1/cm2 (2×) and 186.95 1/cm2 and 135.24 1/cm2 (2×) and 87.51 1/cm2 and 83.53 1/cm2
same,Nr HAIRS/0.25 cm2 T90,"[4]; individual volunteers, T90 days, daily application",28 HAIRS/0.25 cm2 and 35 HAIRS/0.25 cm2 and 31 HAIRS/0.25 cm2 (2×) and 30 HAIRS/0.25 cm2 (3×) and 27 HAIRS/0.25 cm2 (2×) and 43 HAIRS/0.25 cm2 and 39 HAIRS/0.25 cm2 and 41 HAIRS/0.25 cm2 and 29 HAIRS/0.25 cm2 (2×) and 47 HAIRS/0.25 cm2 and 34 HAIRS/0.25 cm2 (2×) and 22 HAIRS/0.25 cm2 and 21 HAIRS/0.25 cm2
same,HAIR DENSITY 1/cm2 T150,"[4]; individual volunteers, T150 days",119.33 1/cm2 (2×) and 139.22 1/cm2 (2×) and 123.11 1/cm2 and 103.42 1/cm2 (2×) and 155.13 1/cm2 and 143.2 1/cm2 and 151.15 1/cm2 and 115.35 1/cm2 (3×) and 123.31 1/cm2 (2×) and 190.93 1/cm2 and 127.29 1/cm2 and 135.24 1/cm2 and 147.18 1/cm2
same,Nr HAIRS/0.25 cm2 T150,"[4]; individual volunteers, T150 days, daily application",30 HAIRS/0.25 cm2 (2×) and 35 HAIRS/0.25 cm2 (2×) and 31 HAIRS/0.25 cm2 (3×) and 26 HAIRS/0.25 cm2 (2×) and 39 HAIRS/0.25 cm2 and 36 HAIRS/0.25 cm2 and 38 HAIRS/0.25 cm2 and 29 HAIRS/0.25 cm2 (3×) and 48 HAIRS/0.25 cm2 and 32 HAIRS/0.25 cm2 and 34 HAIRS/0.25 cm2 and 37 HAIRS/0.25 cm2

# Source: patent publication US12570694B2, “Peptides and pharmaceutical, nutraceutical or veterinary compositions for hair loss prevention and/or treatment” (VYTRUS BIOTECH, S.L., priority 2016, dated 2026)
